11 compounds from US20260374739A1, “SMALL MOLECULAR WEIGHT CHEMICAL COMPOUND TO ANTAGONIZE EPH-EPHRIN TETRAMERIZATION AND INHIBIT BIDIRECTIONAL SIGNALING” (THE BOARD OF REGENTS OF THE UNIVERSITY OF TEXAS SYSTEM, priority 2022, published 2026) can be followed below.

Where “and” joins values, the source holds several entries; their conditions need not be identical. Equal values may be shown once.

The test system of experiment [1] is Zymosan-induced mechanical pain in mice. Nature of the experiment: Zymosan inflammatory pain, mechanical. Type of experiment: in vivo, mouse. The conditions noted are these: PO; for mechanical pain ratio: vehicle about 3. As to the method:
An alternative and potentially faster pain model using Zymosin (an inflammatory agent like CFA) to induce inflammatory pain was tested. […] Mice were first acclimated to the pain testing set ups and then subjected to baseline mechanical and thermal pain measurements. Early in the morning the following day, the left hind paws were injected subcutaneously with 30 μL of Zymosan (5 mg/ml in PBS; Z4250, Sigma-Aldrich). Two hours after the Zymosan injection, the left hind paws were assessed for thermal pain using Hargreaves device (2-4 hr), and then left paws tested for mechanical pain using VF filaments (4-6 hr), and then again for thermal pain (6-8 hr). Data from two independent experiments were pooled to increase the n values for the three different genotypes. […] Thermal pain increased in all group following Zymosan injury as indicated by a decreased average response time to the infrared heat source in all animals assessed, and the level of pain intensified from the 2-4 hr testing period to the 6-8 hr period.
Inflammatory pain was induced by subcutaneous injection of 30 μl of 5 mg/ml Zymosan into the right hind paws of 12 wild-type adult male mice (5-6 months age, 129×1/SvJ background) that in previous days were acclimated to the testing chambers and assessed to obtain baseline pain measurements. After 15 min, mice were orally dosed with either vehicle only (97% PBS/3% DMSO) or with 20, 10, or 5 mg/kg of A20 (2×·HCl salt in vehicle), 3 mice for each condition. Two hours after Zymosan injection, the right hind paws were assessed for thermal pain using Hargreaves device (2-4 hr), then mice were orally dosed again with vehicle only or A20 chemicals, and then right paws tested for mechanical pain using VF filaments (4-6 hr), and then again for thermal pain (6-8 hr).
Inflammatory pain was induced by subcutaneous injection of 30 μl of 5 mg/ml Zymosan into the left hind paws of 9 wild-type adult males (5-6 months age, 129/CD1 mixed background) that in previous days were acclimated to the testing chambers and assessed to obtain baseline pain measurements. After 15 min, mice were orally dosed with either vehicle only (97% PBS/3% DMSO) or with 20 mg/kg of 3511-I (2×·HCl salt in vehicle), or 20 mg/kg BQPB4 (3×·HCl salt in 97% sunflower seed oil/3% DMSO), 3 mice for each condition. Two hours after Zymosan injection, the left […] hind paws were assessed for mechanical pain using VF filaments (2-4 hr), then mice were orally dosed again with vehicle only or A20 chemicals, and then left hind paws tested for thermal pain using Hargreaves device (4-6 hr), and then again for mechanical pain (6-8 hr).

For experiment [2], the target named is T1, EphB2-EphrinB2 (Mus musculus, UniProt P54763).
T1 sequence (P54763 19-543 limits assumed): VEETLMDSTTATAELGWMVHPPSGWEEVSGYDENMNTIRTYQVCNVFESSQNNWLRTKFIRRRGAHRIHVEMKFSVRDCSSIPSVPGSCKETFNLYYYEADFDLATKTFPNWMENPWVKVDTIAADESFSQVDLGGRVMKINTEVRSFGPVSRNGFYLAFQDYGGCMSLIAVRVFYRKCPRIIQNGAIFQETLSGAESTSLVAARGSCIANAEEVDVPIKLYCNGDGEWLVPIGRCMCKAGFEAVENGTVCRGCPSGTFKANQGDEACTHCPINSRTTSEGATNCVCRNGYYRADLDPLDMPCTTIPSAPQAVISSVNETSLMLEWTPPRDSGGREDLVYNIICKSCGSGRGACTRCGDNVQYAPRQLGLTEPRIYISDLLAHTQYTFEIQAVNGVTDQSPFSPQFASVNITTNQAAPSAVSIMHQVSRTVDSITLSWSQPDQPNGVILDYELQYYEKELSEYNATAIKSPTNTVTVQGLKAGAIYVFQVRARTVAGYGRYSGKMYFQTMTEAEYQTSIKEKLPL
Description: Octet, immobilized mouse EphB2 binding to mouse EphrinB2. Conditions: for IC50: immobilized mouse EphB2, 50 nM soluble mouse EphrinB2. The source says: The novel compound A20-I is a halogen replacement that changes the 7-bromine in A20 for iodine and had enhanced tetramerization inhibitor activity (FIGS. 38A-38D). This is evident when comparing results of A20-I and A20 salt compounds on the interaction of immobilized mouse EphB2 ectodomain binding to soluble mouse EphrinB2 ectodomain (FIG. 38A and FIG. 38B) or soluble human EphrinA5 (FIG. 38C). […] During these interactions of immobilized EphB ectodomains binding to soluble EphrinB2, the tetramer is much more surmountable by addition of an active compound than for the reverse experiment where EphrinB2 is immobilized and EphB2 is the soluble component in the assay (see FIG. 11, FIG. 17, and FIG. 25A-FIG. 25C). It is believed that the more resistant unsurmountable tetramer formed by immobilized EphrinB2 binding to soluble EphB ectodomains provides for the most rigorous test for determining IC50 values and thus utilizing this EphrinB2-EphB2 assay for analysis of all compounds, provide uniformity in observed results. The results described herein with A20-I and using the human EphrinB2-EphB2 interaction indicates replacements can be made in the 7-bromine in A20 that lead to enhanced tetramerization inhibitor activity.
Background: In BLI a coated tip is dipped into the sample, and binding shifts an interference pattern.

Where [3] appears, read: Absolute Association IC50, mEphB2-mEphrinB2, association, absolute.
The mark [4] stands for this setting: Absolute Dissociation IC50, mEphB2-mEphrinB2, dissociation, absolute.
The mark [5] stands for this setting: Relative Association IC50, mEphB2-mEphrinB2, association, relative.
[6] abbreviates: Relative Dissociation IC50, mEphB2-mEphrinB2, dissociation, relative.

As to `COc1ccccc1N1CCN(Cc2cc(I)c(O)c3ncccc23)CC1` [Compound 71, 7-iodo-5-((4-(2-methoxyphenyl)piperazin-1-yl)methyl)quinolin-8-ol], the “mechanical pain” value in experiment [1] is recorded as “somewhat blunted mechanical pain response”.

For orientation: IC50 means the concentration that gives 50% inhibition. The low end stands for higher potency, the high end for lower potency. On to `O=[N+]([O-])c1cc(CN2CCOCC2)c2cccnc2c1O` [Compound 10, 4-((8-hydroxy-7-nitroquinolin-1-ium-5-yl)methyl)morpholin-4-ium chloride], for which the IC50 in experiment [2] (setting [3]), in experiment [2] (setting [4]), in experiment [2] (setting [5]) and in experiment [2] (setting [6]) was below 10000 nM in each case.

As to `Oc1c(Br)cc(CN2CCOCC2)c2cccnc12` [Compound 6, 4-((7-bromo-8-hydroxyquinolin-1-ium-5-yl)methyl)morpholin-4-ium chloride], the IC50 in experiment [2] (setting [3]) is 2920 nM; in experiment [2] (setting [4]), 680 nM; in experiment [2] (setting [5]) it was 1040 nM; in experiment [2] (setting [6]), 500 nM.

Turning to `Oc1c(Br)cc(CN2CCN(c3ccc(Br)cc3)CC2)c2cccnc12` [Compound 28, 7-bromo-5-((4-(4-bromophenyl)piperazin-1-yl)methyl)quinolin-8-ol], in experiment [1], the “mechanical pain” value is listed as “essentially no enhanced mechanical pain sensitivity” and the mechanical pain ratio was around 1.

Turning to `Oc1ccc(CN2CCOCC2)c2cccnc12` [Compound 1, 5-(morpholinomethyl)quinolin-8-ol], the IC50 in experiment [2] (setting [3]) was 100000 nM; in experiment [2] (setting [4]) it was 9900 nM; in experiment [2] (setting [5]) it was 10900 nM; in experiment [2] (setting [6]), 900 nM.

On to `Oc1c(Br)cc(CN2CCOCC2)c2cccnc12` [Compound 5, 7-bromo-5-(morpholinomethyl)quinolin-8-ol], for which, in experiment [1], the “mechanical pain” value was “significant reductions in both mechanical and thermal pain”; the mechanical pain ratio was around 1.

Turning to `Oc1c(I)cc(CN2CCOCC2)c2cccnc12` [Compound 8, 4-((8-hydroxy-7-iodoquinolin-1-ium-5-yl)methyl)morpholin-4-ium chloride], the IC50 in experiment [2] (setting [3]) was 690 nM and 1300 nM; in experiment [2] (setting [4]), 470 nM and 510 nM; in experiment [2] (setting [5]), 300 nM and 410 nM; in experiment [2] (setting [6]), 250 nM and 510 nM.

Take `Oc1c(Cl)cc(CN2CCOCC2)c2cccnc12` [Compound 4, 4-((7-chloro-8-hydroxyquinolin-1-ium-5-yl)methyl)morpholin-4-ium chloride]: the IC50 turned out to be 4290 nM in experiment [2] (setting [3]), 900 nM in experiment [2] (setting [4]), 940 nM in experiment [2] (setting [5]) and 630 nM in experiment [2] (setting [6]).

Regarding `Oc1ccc(CN2CCN(Cc3ccc(C(F)(F)F)cc3)CC2)c2cccnc12` [Compound 48, 5-((4-(4-(trifluoromethyl)benzyl)piperazin-1-yl)methyl)quinolin-8-ol], the IC50 is 100000 nM in experiment [2] (setting [3]), 8120 nM in experiment [2] (setting [4]), 12100 nM in experiment [2] (setting [5]) and 2120 nM in experiment [2] (setting [6]).

As for `Oc1c(I)cc(CN2CCOCC2)c2cccnc12` [Compound 7, 7-iodo-5-(morpholinomethyl)quinolin-8-ol], in experiment [2] (100 μM), the “elimination of tetramer” value was “eliminated all tetramer species”.

For the compound `O=S1(=O)CCN(Cc2ccc(O)c3ncccc23)CC1` [Compound 15, 4-((8-hydroxyquinolin-1-ium-5-yl)methyl)thiomorpholin-4-ium 1,1-dioxide chloride], the IC50 in experiment [2] (setting [3]) was 100000 nM; in experiment [2] (setting [4]) it was 6530 nM; in experiment [2] (setting [5]) it was 6310 nM; in experiment [2] (setting [6]) it was 990 nM.
